Assay results published in ChEMBL document CHEMBL1201862, “PubChem BioAssay data set” (2004).
Where “and” joins values, the source holds several entries; their conditions need not be identical. Identical values can stand only once.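 How tested: cells in 96-well plates exposed to compound for 48 hours at five concentrations. Abbreviation: GI50, concentration required for 50% inhibition of growth.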 Calls of active or inactive are those of the source. No stated cut-off is given here; in the data, active = GI50 up to about 1.1 µM and inactive = higher.

Columns and labels:
Assay in all cases: inhibition of tumour cell growth, NCI panel, 48 h
[1] = system: HOP-62
[2] = system: OVCAR-5
[3] = system: SF-295
[4] = system: EKVX
[5] = system: KM12
[6] = system: UO-31
[7] = system: NCI/ADR-RES
[8] = system: OVCAR-3
[9] = system: OVCAR-8
[10] = system: SK-MEL-5
[11] = system: HT-29
[12] = system: SR
[13] = system: LOX IMVI
[14] = system: CCRF-CEM
[15] = system: 786-0
[16] = system: NCI-H522
[17] = system: TK-10
[18] = system: MDA-MB-231
[19] = system: HCC 2998
[20] = system: IGROV-1
[21] = system: HL-60
[22] = system: MOLT-4
[23] = system: A549
[24] = system: U-251
[25] = system: Hs-578T
[26] = system: RPMI-8226
[27] = system: HOP-92
[28] = system: UACC-62
[29] = system: HCT-15
[30] = system: Malme-3M
[31] = system: MDA-N
[32] = system: SN12C
[33] = system: SK-MEL-28
[34] = system: PC-3
[35] = system: K562
[36] = system: MCF7
[37] = system: SF-268
[38] = system: T47D
[39] = system: HCT-116
[40] = system: NCI-H23
[41] = system: NCI-H460
[42] = system: SK-OV-3
[43] = system: CAKI-1
[44] = system: SK-MEL-2
[45] = system: ACHN
[46] = system: SW-620
[47] = system: OVCAR-4
[48] = system: COLO 205
[49] = system: SNB-19
[50] = system: UACC-257
[51] = system: DU-145
[52] = system: A498
[53] = system: BT-549
[54] = system: NCI-H226
[55] = system: MDA-MB-435
[56] = system: SNB-75
[57] = system: M14
[58] = system: SF-539
[59] = system: RXF 393

SC1=NC2=C(CSC/C2=C\c2ccc(Cl)cc2)C(c2ccc(Cl)cc2)N1 (centres undefined)
GI50 [1]: 36 µM (inactive)
GI50 [2]: 72.4 µM (inactive)
GI50 [3]: 42.2 µM (inactive)
GI50 [4]: 38 µM (inactive)
GI50 [5]: 25.9 µM (inactive)
GI50 [6]: 32.4 µM (inactive)
GI50 [7]: 38.1 µM (inactive)
GI50 [8]: 41.2 µM (inactive)
GI50 [9]: 39.2 µM (inactive)
GI50 [10]: 19.1 µM (inactive)
GI50 [11]: 29.6 µM (inactive)
GI50 [12]: 32.2 µM (inactive)
GI50 [13]: 27 µM (inactive)
GI50 [14]: 24.7 µM (inactive)
GI50 [15]: 26.5 µM (inactive)
GI50 [16]: 42.8 µM (inactive)
GI50 [17]: 36.6 µM (inactive)
GI50 [18]: 35.2 µM (inactive)
GI50 [19]: 25.4 µM (inactive)
GI50 [20]: 51.8 µM (inactive)
GI50 [21]: 24.7 µM (inactive)
GI50 [22]: 31.1 µM (inactive)
GI50 [23]: 34.4 µM (inactive)
GI50 [24]: 36.8 µM (inactive)
GI50 [25]: 45.3 µM (inactive)
GI50 [26]: 37 µM (inactive)
GI50 [27]: 29.5 µM (inactive)
GI50 [28]: 49 µM (inactive)
GI50 [29]: 34 µM
GI50 [30]: 26.4 µM (inactive)
GI50 [31]: 33.5 µM (inactive)
GI50 [32]: 33.2 µM (inactive)
GI50 [33]: > 100 µM (inactive)
GI50 [34]: 31.3 µM (inactive)
GI50 [35]: 28.6 µM (inactive)
GI50 [36]: 30.8 µM (inactive)
GI50 [37]: 75.7 µM (inactive)
GI50 [38]: 28.6 µM (inactive)
GI50 [39]: 27.5 µM (inactive)
GI50 [40]: 46.9 µM (inactive)
GI50 [41]: 31.4 µM (inactive)
GI50 [42]: 55.8 µM (inactive)
GI50 [43]: 42.3 µM (inactive)
GI50 [44]: 34.2 µM (inactive)
GI50 [45]: 40 µM (inactive)
GI50 [46]: 41.3 µM (inactive)
GI50 [47]: 42.5 µM (inactive)
GI50 [48]: 17.3 µM (inactive)
GI50 [49]: 44.3 µM (inactive)
GI50 [50]: 32 µM (inactive)
GI50 [51]: 39.4 µM (inactive)

CC(C)(C)C1CCC2c3c([nH]c4ccccc34)C3C(=O)N(c4ccc(Cl)cc4)C(=O)C3C2C1 (centres undefined)
GI50 [2]: 0.0209 µM (active)
GI50 [12]: > 10 µM (inactive) and 18 µM (inactive)
GI50 [52]: > 10 µM (inactive)
GI50 [13]: 0.012 µM (active)
GI50 [14]: > 10 µM (inactive) and 19.5 µM (inactive)
GI50 [21]: > 10 µM (inactive) and 17.7 µM (inactive)
GI50 [30]: > 10 µM (inactive)
GI50 [36]: 31.3 µM (inactive)
GI50 [53]: > 100 µM (inactive)
GI50 [44]: > 10 µM (inactive)

C=C(Br)CNC(=O)CCC(=O)NCC(=C)Br
GI50 [1]: > 100 µM (inactive)
GI50 [2]: > 100 µM (inactive)
GI50 [3]: > 100 µM (inactive)
GI50 [4]: > 100 µM (inactive)
GI50 [54]: > 100 µM (inactive)
GI50 [5]: > 100 µM (inactive)
GI50 [6]: > 100 µM (inactive)
GI50 [7]: > 100 µM (inactive)
GI50 [8]: > 100 µM (inactive)
GI50 [55]: > 100 µM (inactive)
GI50 [9]: > 100 µM (inactive)
GI50 [10]: > 100 µM (inactive)
GI50 [11]: > 100 µM (inactive)
GI50 [12]: > 100 µM (inactive)
GI50 [52]: > 100 µM (inactive)
GI50 [13]: > 100 µM (inactive)
GI50 [14]: > 100 µM (inactive)
GI50 [15]: > 100 µM (inactive)
GI50 [56]: > 100 µM (inactive)
GI50 [16]: > 100 µM (inactive)
GI50 [17]: > 100 µM (inactive)
GI50 [18]: > 100 µM (inactive)
GI50 [19]: > 100 µM (inactive)
GI50 [20]: > 100 µM (inactive)
GI50 [21]: > 100 µM (inactive)
GI50 [22]: > 100 µM (inactive)
GI50 [23]: > 100 µM (inactive)
GI50 [24]: > 100 µM (inactive)
GI50 [25]: > 100 µM (inactive)
GI50 [26]: > 100 µM (inactive)
GI50 [28]: > 100 µM (inactive)
GI50 [29]: > 100 µM
GI50 [30]: > 100 µM (inactive)
GI50 [31]: > 100 µM (inactive)
GI50 [32]: > 100 µM (inactive)
GI50 [33]: > 100 µM (inactive)
GI50 [34]: > 100 µM (inactive)
GI50 [57]: > 100 µM (inactive)
GI50 [35]: > 100 µM (inactive)
GI50 [36]: > 100 µM (inactive)
GI50 [37]: > 100 µM (inactive)
GI50 [38]: > 100 µM (inactive)
GI50 [39]: > 100 µM (inactive)
GI50 [40]: > 100 µM (inactive)
GI50 [41]: > 100 µM (inactive)
GI50 [42]: > 100 µM (inactive)
GI50 [43]: > 100 µM (inactive)
GI50 [44]: > 100 µM (inactive)
GI50 [45]: > 100 µM (inactive)
GI50 [46]: > 100 µM (inactive)
GI50 [47]: > 100 µM (inactive)
GI50 [48]: > 100 µM (inactive)
GI50 [58]: > 100 µM (inactive)
GI50 [49]: > 100 µM (inactive)
GI50 [50]: > 100 µM (inactive)
GI50 [59]: > 100 µM (inactive)
GI50 [51]: > 100 µM (inactive)

O=C1/C(=C\c2c(-c3ccccc3)[nH]n(-c3ccccc3)c2=O)C(c2ccccc2)=NN1c1ccccc1
GI50 [1]: > 100 µM (inactive)
GI50 [2]: > 100 µM (inactive)
GI50 [3]: > 100 µM (inactive)
GI50 [4]: > 100 µM (inactive)
GI50 [54]: > 100 µM (inactive)
GI50 [5]: > 100 µM (inactive)
GI50 [6]: > 100 µM (inactive)
GI50 [7]: > 100 µM (inactive)
GI50 [8]: > 100 µM (inactive)
GI50 [55]: > 100 µM (inactive)
GI50 [9]: > 100 µM (inactive)
GI50 [11]: > 100 µM (inactive)
GI50 [12]: 20 µM (inactive)
GI50 [52]: > 100 µM (inactive)
GI50 [13]: > 100 µM (inactive)
GI50 [14]: 79.4 µM (inactive)
GI50 [15]: > 100 µM (inactive)
GI50 [56]: > 100 µM (inactive)
GI50 [17]: > 100 µM (inactive)
GI50 [18]: > 100 µM (inactive)
GI50 [19]: > 100 µM (inactive)
GI50 [20]: > 100 µM (inactive)
GI50 [21]: > 100 µM (inactive)
GI50 [22]: > 100 µM (inactive)
GI50 [23]: > 100 µM (inactive)
GI50 [24]: > 100 µM (inactive)
GI50 [25]: > 100 µM (inactive)
GI50 [26]: > 100 µM (inactive)
GI50 [27]: 81.3 µM (inactive)
GI50 [28]: > 100 µM (inactive)
GI50 [29]: > 100 µM
GI50 [30]: > 100 µM (inactive)
GI50 [31]: > 100 µM (inactive)
GI50 [32]: > 100 µM (inactive)
GI50 [33]: > 100 µM (inactive)
GI50 [34]: > 100 µM (inactive)
GI50 [57]: > 100 µM (inactive)
GI50 [35]: 87.5 µM (inactive)
GI50 [36]: > 100 µM (inactive)
GI50 [37]: > 100 µM (inactive)
GI50 [38]: > 100 µM (inactive)
GI50 [39]: > 100 µM (inactive)
GI50 [40]: > 100 µM (inactive)
GI50 [41]: > 100 µM (inactive)
GI50 [42]: > 100 µM (inactive)
GI50 [43]: > 100 µM (inactive)
GI50 [44]: > 100 µM (inactive)
GI50 [45]: > 100 µM (inactive)
GI50 [46]: > 100 µM (inactive)
GI50 [47]: > 100 µM (inactive)
GI50 [48]: > 100 µM (inactive)
GI50 [58]: > 100 µM (inactive)
GI50 [49]: > 100 µM (inactive)
GI50 [50]: > 100 µM (inactive)
GI50 [59]: > 100 µM (inactive)
GI50 [51]: > 100 µM (inactive)
